Source: ChEMBL document CHEMBL1131475, “Discovery of ritonavir, a potent inhibitor of HIV protease with high oral bioavailability and clinical efficacy” (J Med Chem, 1998)

Assays:
[1] = Oral bioavailability in rat; type: ADME, organism-based; details: in vivo
in vivo [2] = details: rat, plasma, po
in vivo [3] = details: rat, plasma, po, 10 mg/kg
in vivo [4] = details: rat, plasma, po; remark: listed apart in the source
in vivo [5] = details: rat, plasma, iv

Row | Structure (SMILES) | bioavailability [1] | AUC (in vivo [2]) | Cmax (in vivo [3]) | Tmax (in vivo [4]) | half-life (in vivo [5])
1 | Cc1ccc(CN(C)C(=O)NC(C(=O)N[C@@H](Cc2ccccc2)[C@@H](O)C[C@H](Cc2ccccc2)NC(=O)OCc2cccnc2)C(C)C)cn1 (stereo not given in full) | 6.7% | 290 ng·h/mL | 1220 nM | 6 min | 26.4 min
2 | CC(C)c1nc(CN(C)C(=O)NC(C(=O)N[C@@H](Cc2ccccc2)C[C@H](O)[C@H](Cc2ccccc2)NC(=O)OCc2cccnc2)C(C)C)cs1 (stereo not given in full) | 12% | 530 ng·h/mL | 980 nM | 19.8 min | 61.8 min
3 | CC(C)c1ncc(COC(=O)NC(C(=O)N[C@@H](Cc2ccccc2)C[C@H](O)[C@H](Cc2ccccc2)NC(=O)OCc2cccnc2)C(C)C)s1 (stereo not given in full) | 0.7% | 20 ng·h/mL | 150 nM | 6 min | 27.6 min
4 | COc1ccc(CN(C)C(=O)NC(C(=O)N[C@@H](Cc2ccccc2)C[C@H](O)[C@H](Cc2ccccc2)NC(=O)OCc2cccnc2)C(C)C)nc1 (stereo not given in full) | 5.7% | 290 ng·h/mL | 1050 nM | 6 min | 34.2 min
5 | CCc1nc(COC(=O)NC(C(=O)N[C@@H](Cc2ccccc2)[C@@H](O)C[C@H](Cc2ccccc2)NC(=O)OCc2cccnc2)C(C)C)cs1 (stereo not given in full) | 9.5% | 420 ng·h/mL | 990 nM | 6 min | 29.4 min
6 | COc1cncc(CN(C)C(=O)NC(C(=O)N[C@@H](Cc2ccccc2)[C@@H](O)C[C@H](Cc2ccccc2)NC(=O)OCc2cccnc2)C(C)C)c1 (stereo not given in full) | 0.8% | 50 ng·h/mL | 440 nM | 6 min | 10.2 min
7 | COc1ccc(COC(=O)NC(C(=O)N[C@@H](Cc2ccccc2)C[C@H](O)[C@H](Cc2ccccc2)NC(=O)OCc2cccnc2)C(C)C)nc1 (stereo not given in full) | 1.3% | 50 ng·h/mL | 290 nM | 6 min | 15 min
8 | COc1ccc(CN(C)C(=O)NC(C(=O)N[C@@H](Cc2ccccc2)C[C@H](O)[C@H](Cc2ccccc2)NC(=O)OCc2cccnc2)C(C)C)cn1 (stereo not given in full) | 10% | 320 ng·h/mL | 1750 nM | 6 min | 13.2 min
9 | CC(C)C(NC(=O)OCc1nccs1)C(=O)N[C@@H](Cc1ccccc1)C[C@H](O)[C@H](Cc1ccccc1)NC(=O)OCc1cccnc1 (stereo not given in full) | 8.5% | 570 ng·h/mL | 2530 nM | 9 min | 39.6 min
10 | CC(C)C(NC(=O)N(C)Cc1ccccn1)C(=O)N[C@@H](Cc1ccccc1)[C@@H](O)C[C@H](Cc1ccccc1)NC(=O)OCc1cncnc1 (stereo not given in full) | 13% | 870 ng·h/mL | 2910 nM | 12 min | 21 min
11 | COc1ccc(COC(=O)NC(C(=O)N[C@@H](Cc2ccccc2)[C@@H](O)C[C@H](Cc2ccccc2)NC(=O)OCc2cccnc2)C(C)C)cn1 (stereo not given in full) | 3.3% | 160 ng·h/mL | 560 nM | 9 min | 25.8 min
12 | Cc1cnc(COC(=O)NC(C(=O)N[C@@H](Cc2ccccc2)[C@@H](O)C[C@H](Cc2ccccc2)NC(=O)OCc2cccnc2)C(C)C)cn1 (stereo not given in full) | 2.8% | 70 ng·h/mL | 350 nM | 12 min | 10.8 min
13 | CC(C)C(NC(=O)OCc1nccs1)C(=O)N[C@@H](Cc1ccccc1)[C@@H](O)C[C@H](Cc1ccccc1)NC(=O)OCc1cccnc1 (stereo not given in full) | 35% | 2050 ng·h/mL | 3330 nM | 10.8 min | 32.4 min
14 | CC(C)C(NC(=O)N(C)Cc1csc(C(C)(C)C)n1)C(=O)N[C@@H](Cc1ccccc1)[C@@H](O)C[C@H](Cc1ccccc1)NC(=O)OCc1cccnc1 (stereo not given in full) | 9.3% | 510 ng·h/mL | 830 nM | 19.8 min | 21.6 min
15 | CC(C)c1cccc(COC(=O)NC(C(=O)N[C@@H](Cc2ccccc2)C[C@H](O)[C@H](Cc2ccccc2)NC(=O)OCc2cccnc2)C(C)C)n1 (stereo not given in full) | 5.6% | 140 ng·h/mL | 200 nM | 15 min | 34.2 min
16 | CC(C)C(NC(=O)OCc1ccccn1)C(=O)N[C@@H](Cc1ccccc1)[C@@H](O)C[C@H](Cc1ccccc1)NC(=O)OCc1cccnc1 (stereo not given in full) | 26% | 1980 ng·h/mL | 4110 nM | 15 min | 114 min
17 | CC(NC(=O)N(C)Cc1csc(C(C)C)n1)C(=O)N[C@@H](Cc1ccccc1)C[C@H](O)[C@H](Cc1ccccc1)NC(=O)OCc1cncs1 (stereo not given in full) | 31% | 1600 ng·h/mL | 1680 nM | 30 min | 54 min
18 | Cc1cccc(CN(C)C(=O)NC(C(=O)N[C@@H](Cc2ccccc2)[C@@H](O)C[C@H](Cc2ccccc2)NC(=O)OCc2cccnc2)C(C)C)n1 (stereo not given in full) | 16% | 950 ng·h/mL | 2420 nM | 15 min | 13.2 min
19 | Cc1cccc(COC(=O)NC(C(=O)N[C@@H](Cc2ccccc2)C[C@H](O)[C@H](Cc2ccccc2)NC(=O)OCc2cccnc2)C(C)C)n1 (stereo not given in full) | 16% | 900 ng·h/mL | 1740 nM | 6 min | 117 min

Row | Structure (SMILES) | bioavailability [1] | AUC (in vivo [2]) | Cmax (in vivo [3]) | Tmax (in vivo [4]) | half-life (in vivo [5])
20 | Cc1ncsc1CCOC(=O)NC(C(=O)N[C@@H](Cc1ccccc1)[C@@H](O)C[C@H](Cc1ccccc1)NC(=O)OCc1cccnc1)C(C)C (stereo not given in full) | 9.2% | 360 ng·h/mL | 410 nM | 27 min | 27 min
21 | Cc1cccc(CN(C)C(=O)NC(C(=O)N[C@@H](Cc2ccccc2)C[C@H](O)[C@H](Cc2ccccc2)NC(=O)OCc2cccnc2)C(C)C)n1 (stereo not given in full) | 32% | 1660 ng·h/mL | 3390 nM | 17.4 min | 40.8 min
22 | COc1cncc(COC(=O)NC(C(=O)N[C@@H](Cc2ccccc2)[C@@H](O)C[C@H](Cc2ccccc2)NC(=O)OCc2cccnc2)C(C)C)c1 (stereo not given in full) | 1.5% | 70 ng·h/mL | 300 nM | 6 min | 71.4 min
23 | Cc1ncc(CN(C)C(=O)NC(C(=O)N[C@@H](Cc2ccccc2)[C@@H](O)C[C@H](Cc2ccccc2)NC(=O)OCc2cccnc2)C(C)C)nc1C (stereo not given in full) | 17% | 550 ng·h/mL | 1520 nM | 9 min | 18 min
24 | CC(C)C(NC(=O)N(C)Cc1ccccn1)C(=O)N[C@@H](Cc1ccccc1)C[C@H](O)[C@H](Cc1ccccc1)NC(=O)OCc1cccnc1 (stereo not given in full) | 22% | 1220 ng·h/mL | 2180 nM | 9 min | 73.2 min
25 | COCc1nc(COC(=O)NC(C(=O)N[C@@H](Cc2ccccc2)[C@@H](O)C[C@H](Cc2ccccc2)NC(=O)OCc2cccnc2)C(C)C)cs1 (stereo not given in full) | 10% | 630 ng·h/mL | 1790 nM | 13.8 min | 16.2 min
26 | CC(C)C(NC(=O)OCc1csc(N2CCOCC2)n1)C(=O)N[C@@H](Cc1ccccc1)[C@@H](O)C[C@H](Cc1ccccc1)NC(=O)OCc1cccnc1 (stereo not given in full) | 1.1% | 30 ng·h/mL | 90 nM | 9 min | 21 min
27 | CC(NC(=O)N(C)Cc1coc(C(C)C)n1)C(=O)N[C@@H](Cc1ccccc1)C[C@H](O)[C@H](Cc1ccccc1)NC(=O)OCc1cncs1 (stereo not given in full) | 23% | 2860 ng·h/mL | 3600 nM | 15 min | 240 min
28 | Cc1cnc(COC(=O)NC(C(=O)N[C@@H](Cc2ccccc2)C[C@H](O)[C@H](Cc2ccccc2)NC(=O)OCc2cccnc2)C(C)C)cn1 (stereo not given in full) | 6% | 190 ng·h/mL | 860 nM | 18 min | 12.6 min
29 | CC(NC(=O)N(Cc1csc(C(C)C)n1)C1CC1)C(=O)N[C@@H](Cc1ccccc1)C[C@H](O)[C@H](Cc1ccccc1)NC(=O)OCc1cncs1 (stereo not given in full) | 76% | 12000 ng·h/mL | 5190 nM | 108 min | 36.6 min
30 | COc1ccc(COC(=O)NC(C(=O)N[C@@H](Cc2ccccc2)[C@@H](O)C[C@H](Cc2ccccc2)NC(=O)OCc2cccnc2)C(C)C)nc1 (stereo not given in full) | 7.7% | 380 ng·h/mL | 1200 nM | 12 min | 27.6 min
31 | CC(C)C(NC(=O)OCc1cncc(N)c1)C(=O)N[C@@H](Cc1ccccc1)[C@@H](O)C[C@H](Cc1ccccc1)NC(=O)OCc1cccnc1 (stereo not given in full) | 0.5% | 20 ng·h/mL | 200 nM | 6 min | 43.2 min
32 | CC(C)C(NC(=O)N(C)Cc1ccccn1)C(=O)N[C@@H](Cc1ccccc1)[C@@H](O)C[C@H](Cc1ccccc1)NC(=O)OCc1ccoc1 (stereo not given in full) | 9.3% | 500 ng·h/mL | 1020 nM | 24 min | 64.2 min
33 | CC(C)C(NC(=O)N(C)Cc1cscn1)C(=O)N[C@@H](Cc1ccccc1)C[C@H](O)[C@H](Cc1ccccc1)NC(=O)OCc1cccnc1 (stereo not given in full) | 5.2% | 290 ng·h/mL | 640 nM | 6 min | 40.2 min
34 | CC(C)c1nc(CN(C)C(=O)NC(C(=O)N[C@@H](Cc2ccccc2)[C@@H](O)C[C@H](Cc2ccccc2)NC(=O)OCc2cccnc2)C(C)C)cs1 (stereo not given in full) | 24% | 950 ng·h/mL | 1650 nM | 15 min | 45 min
35 | CC(C)c1nc(COC(=O)NC(C(=O)N[C@@H](Cc2ccccc2)C[C@H](O)[C@H](Cc2ccccc2)NC(=O)OCc2cccnc2)C(C)C)cs1 (stereo not given in full) | 1.6% | 50 ng·h/mL | 210 nM | 6 min | 14.4 min
36 | CC(C)c1nc(CN(C)C(=O)NC(C(=O)N[C@@H](Cc2ccccc2)C[C@H](O)[C@H](Cc2ccccc2)NC(=O)OCc2ccno2)C(C)C)co1 (stereo not given in full) | 3.8% | 180 ng·h/mL | 490 nM | 6 min | 24 min
37 | Cc1cncc(COC(=O)NC(C(=O)N[C@@H](Cc2ccccc2)[C@@H](O)C[C@H](Cc2ccccc2)NC(=O)OCc2cccnc2)C(C)C)c1 (stereo not given in full) | 5.9% | 210 ng·h/mL | 480 nM | 18 min | 16.8 min
